Viability data for 81 compounds are collected here from PMC12040169 (PLOS Biology, 2025).

This data set can be described thus: in vitro. As to conditions: human, hela cells, % viability.

For orientation: viability means a read-out of living cells in per cent, often relative to untreated cells. Regarding `Cc1nn(C)c2ncc(S(=O)(=O)NC(C)c3cccc(F)c3)cc12` (stereo not drawn) [CBK305948], the viability at 28.5 h, 10 µM was 94.9%.

Turning to `CC(=O)N1CCc2cc(Nc3ncnc4c3cnn4CCC#N)ccc21` [CBK305950], the viability at 28.5 h, 10 µM is 101%. Next, `Cc1cccn2c(=O)cc(CN3CCC(c4ccn[nH]4)CC3)nc12` [CBK305951]: 93.2%; `CCOC(=O)C(Cc1ccccc1)NC(=O)c1ccc(C)nc1` (stereo not drawn) [CBK305952]: 89.6%; `CC1CCCN(CC(C)NC(=O)Cn2cnc3ccc(F)cc3c2=O)C1` (stereo not drawn) [CBK305953]: 91.5%.

In the case of `CCCN1CCC(NC(=O)c2cccc(S(N)(=O)=O)c2)CC1` [CBK305956], the viability at 28.5 h, 10 µM was 90.6%. The result for `CCN(C)Cc1cccc(CNc2ncnc3c2cnn3CCC#N)c1` [CBK305959] reads 92.2%. Next, `CCc1noc(CN2CCC(c3c[nH]c4ccc(OC)cc34)CC2)n1` [CBK305960]: 84.1%. Regarding `CCOC(=O)C(CNC(=O)c1c(CC)noc1C)Cc1ccccc1` (stereo not drawn) [CBK305961], the viability at 28.5 h, 10 µM was determined as 90.8%.

As for `CCCc1c(C(=O)N2CCN(c3cnccn3)CC2)cnn1C` [CBK305962], the viability at 28.5 h, 10 µM was 99%. Next, `Cc1nc(S(=O)(=O)N2CCC(C(=O)N3CCCCC3)CC2)cn1C` [CBK305963]: 89.4%; `CCOc1ncccc1CNc1ncnc2c1cnn2CCO` [CBK305964]: 97%; `COc1ccnc(N2CCN(C(=O)c3cc(C)nn3C)CC2)n1` [CBK305967]: 83.7%.

Consider `Cc1cc(N(C)CCOc2ccccc2F)nc(N)n1` [CBK305969], for which the viability at 28.5 h, 10 µM amounted to 79.6%. Consider `O=C(c1ccc(NC2CC2)nc1)N1CCC(CN2CCOCC2)CC1` [CBK305970], for which the viability at 28.5 h, 10 µM was determined as 87.6%.

Consider `CCOC(=O)C(CNC(=O)CNC(=O)c1ccoc1)Cc1ccccc1` (stereo not drawn) [CBK305971], for which the viability at 28.5 h, 10 µM stood at 92.4%. On to `CN(Cc1cccc(C#N)c1)Cc1nc2c(cnn2C)c(=O)[nH]1` [CBK305973], for which the viability at 28.5 h, 10 µM amounted to 109%. Next, `CC(NC(=O)Cc1cccc(F)c1)c1nnc2n1CCCCC2` (stereo not drawn) [CBK305975]: 85.8%; `Cc1ccc(OCCC(=O)NCC(c2cccs2)N2CCOCC2)cc1` (stereo not drawn) [CBK305976]: 90.9%. The result for `OCCn1ncc2c(NCc3cccnc3-n3cccn3)ncnc21` [CBK305977] reads 90.6%; that for `Cc1nn(CC(=O)N2CCN(Cc3ccccn3)CC2)c(C)c1Cl` [CBK305978], 93.8%. Next, `COc1ncccc1CNc1ncnc2c1cnn2CCO` [CBK305980]: 116%; `C#CCNS(=O)(=O)c1cccc(C(=O)NCC2CCCN(C(C)C)C2)c1` (stereo not drawn) [CBK305981]: 109%. For the compound `COc1ccc2[nH]cc(C3CCN(Cc4nc(C)no4)CC3)c2c1` [CBK305982], the viability at 28.5 h, 10 µM turned out to be 94.6%. Take `COCc1cccc(Nc2ncnc3c2cnn3CCC#N)c1` [CBK305983]: the viability at 28.5 h, 10 µM was found to be 83.2%.

Turning to `Cc1ncc(CN(C)C(=O)Nc2cccc(C(=O)N3CCOCC3)c2)s1` [CBK305984], the viability at 28.5 h, 10 µM is 92.2%. The result for `Cc1cc(N2CCCC(C(=O)N3CCOCC3)C2)nc(N)n1` (stereo not drawn) [CBK305985] reads 76.4%; that for `CNC(=O)c1cc(S(=O)(=O)N(C2CC2)C2CCc3ccccc32)cn1C` (stereo not drawn) [CBK305988], 106%; that for `COC(=O)c1cccc(OCCn2c(=O)c(C#N)cn(C3CC3)c2=O)c1` [CBK305990], 98.6%.

In the case of `CC(NS(=O)(=O)c1ccccc1Cl)C(=O)N1CCCC1` (stereo not drawn) [CBK305994], the viability at 28.5 h, 10 µM amounted to 93.2%.

As for `COC(=O)c1ccc(N2CCN(Cc3nc(C)no3)C(C)C2)cc1` (stereo not drawn) [CBK305998], the viability at 28.5 h, 10 µM worked out at 92.3%. Next, `CC(C)NC(=O)Nc1ccc(C(=O)N(CCC#N)Cc2ccco2)cc1` [CBK305999]: 82.3%; `CC1CCc2c(sc3ncnc(OCC(=O)N4CCOCC4)c23)C1` (stereo not drawn) [CBK306000]: 95.9%. Consider `Cc1cc(Br)c(O)c(C(=O)N(C)CC(=O)Nc2cc(C)on2)c1` [CBK306002], for which the viability at 28.5 h, 10 µM turned out to be 94.8%. The result for `Cc1ccnc(NCC2CCN(Cc3cc(=O)n4ccccc4n3)C2)c1` (stereo not drawn) [CBK306003] reads 97.3%; that for `CC1CCC(C(N)=O)CN1C(=O)c1ccc(Oc2cccc(Br)c2)nc1` (stereo not drawn) [CBK306005], 106%. Next, `COc1ccccc1CN(C)S(=O)(=O)c1ccc(S(N)(=O)=O)cc1` [CBK306008]: 113%. The result for `CCc1nnc(SC(C)C(=O)N2CCCc3ccccc32)[nH]1` (stereo not drawn) [CBK306009] reads 84.1%; that for `N#Cc1ccnc(SCC(=O)Nc2ccc(CN3CCOCC3)cc2)c1` [CBK306010], 103%; that for `Cc1nn(C)c(C)c1NC(=O)COc1ccc(C#N)cc1` [CBK306011], 87.5%. As for `CCC(NC1CCc2nc(C)cn2C1)c1ccccc1O` (stereo not drawn) [CBK306012], the viability at 28.5 h, 10 µM amounted to 85.8%. Next, `COc1cc(CC(=O)N2CCc3c(sc4ncnc(N)c34)C2)ccc1C` [CBK306013]: 103%; `CN(CCN(C)C(=O)c1cc2sccc2[nH]1)CC(F)F` [CBK306014]: 103%. Next, `Cc1cc(NC(=O)CS(=O)(=O)c2cccc(C(F)(F)F)c2)on1` [CBK306015]: 85.5%.

`CC(=O)Nc1ccc(CNc2ncccc2OC(F)F)cc1` [CBK306016]: the viability at 28.5 h, 10 µM came out at 95%. `CN(C(=O)C1(NC(N)=O)CC1)c1nc2c(s1)CC(c1ccccc1)CC2` (stereo not drawn) [CBK306022]: the viability at 28.5 h, 10 µM is 93%. Consider `CCc1nc(C(C)NC(=O)COc2nn(C)c3nc(C)cc(C)c23)cs1` (stereo not drawn) [CBK306024], for which the viability at 28.5 h, 10 µM was 93.3%. The result for `O=C(CCNS(=O)(=O)c1ccccc1Cl)N1CCN(C(=O)C2CC2)CC1` [CBK306025] reads 113%. Next, `COc1ccccc1CN(C)C(=O)Nc1ccc(S(N)(=O)=O)cc1` [CBK306026]: 90.4%; `CCOCCn1c(CN2CCCCC2)nc2c1c(=O)n(C)c(=O)n2C` [CBK306028]: 85.8%; `CCn1c(CN2CC(C)CC(C)C2)nc2c1c(=O)n(C)c(=O)n2C` (stereo not drawn) [CBK306030]: 84.4%. Next, `CCCSc1nc2cc(C(=O)OC)ccc2c(=O)n1CC1CCCO1` (stereo not drawn) [CBK306031]: 91%; `COC(=O)CCn1c(=O)c2c(nc3oc(C(C)(C)C)cn32)n(C)c1=O` [CBK306034]: 87.7%; `CCn1c(C)cc(C(=O)CSc2nnc(N3CCCC3)n2C2CC2)c1C` [CBK306035]: 85.5%. As for `CC(C)NC(=O)CN(C)Cc1nc(-c2cccc(C(F)(F)F)c2)no1` [CBK306036], the viability at 28.5 h, 10 µM amounted to 72.2%.

In the case of `CCN(CC(=O)NC(C)C)Cc1nc(-c2cccc(C(F)(F)F)c2)no1` [CBK306039], the viability at 28.5 h, 10 µM came out at 88.6%.

For `Cc1oc(NC(=O)CN2CCN(c3ccccc3)CC2)c(C#N)c1C` [CBK306044], the viability at 28.5 h, 10 µM came out at 81.7%. The result for `CC(Sc1nc2ccccc2c(=O)n1C1CC1)C(=O)N1CCOCC1` (stereo not drawn) [CBK306045] reads 79.5%; that for `CC1CCCCC1NC(=O)NC(=O)Cn1nnc2ccccc2c1=O` (stereo not drawn) [CBK306046], 90.2%.

As for `CCCn1c(C)c(C)n2c3c(=O)n(CCC(=O)OC)c(=O)n(C)c3nc12` [CBK306048], the viability at 28.5 h, 10 µM was found to be 98.4%. Next, `COc1ccc(CC(=O)NC(CCSC)c2nc3ccccc3[nH]2)cc1` (stereo not drawn) [CBK306050]: 82.6%; `CC(c1nc(N)nc(N(C)C)n1)N(C)CCOc1ccccc1F` (stereo not drawn) [CBK306053]: 88.2%. The result for `Cc1cccc(N2CCN(CC(=O)Nc3cc(Cl)ccc3C#N)CC2)c1` [CBK306055] reads 109%; that for `Cc1sc2ncn(CC(=O)Nc3cccnc3)c(=O)c2c1C` [CBK306057], 92.5%; that for `Cc1nc(C)c(CCC(=O)Nc2ccc(N3CCOCC3)cc2)c(=O)[nH]1` [CBK306059], 88.4%. The result for `N#CCC(=O)Nc1ccc(C(=O)N2CCN(c3ccccc3)CC2)cc1` [CBK306060] reads 91.9%; that for `CCOCCn1c(CN2CCOCC2)nc2c1c(=O)n(C)c(=O)n2C` [CBK306062], 105%; that for `CC1CCCN(Cc2nc3c(c(=O)n(C)c(=O)n3C)n2CC(N)=O)C1` (stereo not drawn) [CBK306064], 82.3%. For `Cc1nn(C)c(C)c1CC(=O)N1CCc2c(sc3ncnc(N)c23)C1` [CBK306065], the viability at 28.5 h, 10 µM is 86.9%. Turning to `Cc1sc2nc(C(C)N3CCN(Cc4ccco4)CC3)[nH]c(=O)c2c1C` (stereo not drawn) [CBK306066], the viability at 28.5 h, 10 µM was found to be 93.7%. The result for `CCCn1ccnc1SCC(=O)Nc1ccc(CN2CCOCC2)cc1` [CBK306068] reads 87.8%; that for `CCOC(=O)C1CCN(C(=O)Cn2cnc3ccc(Br)cc3c2=O)CC1` [CBK306070], 106%; that for `O=C(CSc1nccn1C1CC1)Nc1ccc(CN2CCOCC2)cc1` [CBK306071], 98.9%. Turning to `O=C(CSc1ccccn1)Nc1ccc(CN2CCOCC2)cc1` [CBK306072], the viability at 28.5 h, 10 µM is 91%. The result for `CC1CCCN(C(=O)CCc2nc3sc4c(c3c(=O)[nH]2)CCCC4)C1` (stereo not drawn) [CBK306073] reads 87.5%; that for `O=C(c1cc(S(=O)(=O)NCc2ccco2)c(Cl)cc1Cl)N1CCCC1` [CBK306076], 87.8%; that for `CCOC(=O)c1sc2nc(C(C)N3CCCCC3)[nH]c(=O)c2c1C` (stereo not drawn) [CBK306078], 111%. Next, `Cn1c(=O)n(CC(N)=O)c(=O)c2c1nc1oc(C(C)(C)C)cn12` [CBK306081]: 96.5%; `Cc1ccc(CN(C)CC(=O)Nc2cc(C(F)(F)F)ccc2Cl)o1` [CBK306085]: 90.4%; `CCN(CC(=O)NC(C)(C)C)S(=O)(=O)c1cccc(C#N)c1` [CBK306087]: 114%.

For the compound `Cc1ccnc2nc(C(=O)OC(C)C(=O)N3CCCC3)nn12` (stereo not drawn) [CBK306089], the viability at 28.5 h, 10 µM turned out to be 88.9%.
